Source: paper PMC7732024 (Bioorganic & medicinal chemistry letters, 2012)

Columns and labels:
HCV [1] = details: clinical trials, at 24 h following a single dose of 10 mg; cited from earlier work
HCV [2] = details: cited from earlier work
[3] = system: subgenomic HCV 1b replicon; test: HCV RNA replication in Huh7 cells containing a subgenomic HCV 1b replicon; type: cell-based, HCV genotype 1b; details: for decrease of activity on introduction of torsion angle in the linker: one range stated for the group of compounds

Row | Structure (SMILES) | anti-HCV activity (in words) ([3]; HCV 1b replicon) | decrease of activity on introduction of torsion angle in the linker ([3]; HCV 1b replicon) | other results
1 | COC(=O)N[C@H](C(=O)N1CCC[C@H]1c1ncc(-c2ccc(-c3ccc(-c4cnc([C@@H]5CCCN5C(=O)[C@@H](NC(=O)OC)C(C)C)[nH]4)cc3)cc2)[nH]1)C(C)C [BMS-790052] |  |  | reduction in HCV RNA (HCV [1]): over 3 log10 IU/mL; median effective antiviral concentration (EC50) in vitro (HCV [2]): picomolar range
2 | COC(=O)N[C@H](C(=O)N1CCC[C@H]1c1ncc(-c2ccc(-c3ccc(-c4cnc([C@@H]5CCCN5C(=O)[C@@H](NC(=O)OC)C(C)C)[nH]4)s3)cc2)[nH]1)C(C)C [Compound 5d] | almost complete loss of anti-HCV activity |  | 
3 | COC(=O)N[C@H](C(=O)N1CCC[C@H]1c1ncc(-c2ccc(-c3ccc(-c4ccc(-c5cnc([C@@H]6CCCN6C(=O)[C@@H](NC(=O)OC)C(C)C)[nH]5)cc4)s3)cc2)[nH]1)C(C)C [Compound 11d] |  | 16- to 15,000 fold | 
4 | COC(=O)N[C@H](C(=O)N1CCC[C@H]1c1ncc(-c2ccc(-c3cccc(-c4ccc(-c5cnc([C@@H]6CCCN6C(=O)[C@@H](NC(=O)OC)C(C)C)[nH]5)cc4)c3)cc2)[nH]1)C(C)C [Compound 11c] |  | 16- to 15,000 fold | 
5 | COC(=O)N[C@H](C(=O)N1CCC[C@H]1c1ncc(-c2ccc(-c3ccc(-c4ccc(-c5cnc([C@@H]6CCCN6C(=O)[C@@H](NC(=O)OC)C(C)C)[nH]5)cc4)cc3)cc2)[nH]1)C(C)C [Compound 11a] | low picomolar range |  | therapeutic index CC50/EC50 ([3]; HCV replicon assay): over four million
6 | COC(=O)N[C@H](C(=O)N1CCC[C@H]1c1ncc(-c2ccc(-c3cn(-c4ccc(-c5cnc([C@@H]6CCCN6C(=O)[C@@H](NC(=O)OC)C(C)C)[nH]5)cc4)nn3)cc2)[nH]1)C(C)C [Compound 17] |  | 16- to 15,000 fold | 
7 | COC(=O)N[C@H](C(=O)N1CCC[C@H]1c1ncc(-c2ccc(Oc3ccc(-c4cnc([C@@H]5CCCN5C(=O)[C@@H](NC(=O)OC)C(C)C)[nH]4)cc3)cc2)[nH]1)C(C)C [Compound 5b] |  | 16- to 15,000 fold | 
8 | COC(=O)N[C@H](C(=O)N1CCC[C@H]1c1ncc(-c2ccc(-c3ccc(-c4ccc(-c5cnc([C@@H]6CCCN6C(=O)[C@@H](NC(=O)OC)C(C)C)[nH]5)cc4)nc3)cc2)[nH]1)C(C)C [Compound 11b] | low picomolar range |  | 
9 | COC(=O)N[C@H](C(=O)N1CCC[C@H]1c1ncc(-c2ccc(NS(=O)(=O)c3ccc(-c4cnc([C@@H]5CCCN5C(=O)[C@@H](NC(=O)OC)C(C)C)[nH]4)cc3)cc2)[nH]1)C(C)C [Compound 5c] |  | 16- to 15,000 fold | 
10 | COC(=O)N[C@H](C(=O)N1CCC[C@H]1c1ncc(-c2ccc(-c3ccc(-c4ccc(-c5ccc(-c6cnc([C@@H]7CCCN7C(=O)[C@@H](NC(=O)OC)C(C)C)[nH]6)cc5)cc4)cc3)cc2)[nH]1)C(C)C [Compound 11e] |  |  | loss of activity at the EC50 level compared to BMS-790052 ([3]; HCV 1b replicon): 37 fold
